Source: PubChem BioAssay AID256 (DTP/NCI, 2004)
“And” between values parts separate entries of the source, which are not always exact repeats. Identical values can stand only once. Inconclusive results and toxic doses are left out. The calls were made as follows: active = survival T/C of 150% or more; inactive = T/C below 125% in these data.

Test system: CD2F1 mice, L1210 leukemia ip, survival T/C
Assay: NCI In Vivo Anticancer Drug Screen. Data for tumor model L1210 Leukemia (intraperitoneal) in CD2F1 (CDF1) mice
Conditions: higher = longer survival
Method in brief: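 Vehicle-treated tumor-bearing mice served as controls (C) for compound-treated mice (T). Reported figure is T divided by C.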

[1] = endpoint: mean survival time, dose: 100.0 mg/kg/injection, schedule: Q04DX003 (ip), vehicle: saline with Tween-80
[2] = endpoint: mean survival time, dose: 200.0 mg/kg/injection, schedule: Q04DX003 (ip), vehicle: saline with Tween-80
[3] = endpoint: mean survival time, dose: 400.0 mg/kg/injection, schedule: Q04DX003 (ip), vehicle: saline with Tween-80
[4] = endpoint: mean survival time, dose: 25.0 mg/kg/injection, schedule: Q01DX009 (ip), vehicle: saline with Tween-80
[5] = endpoint: mean survival time, dose: 100.0 mg/kg/injection, schedule: Q01DX009 (ip), vehicle: saline with Tween-80
[6] = endpoint: mean survival time, dose: 100.0 mg/kg/injection, schedule: Q04DX002 (ip), vehicle: saline with Tween-80
[7] = endpoint: mean survival time, dose: 200.0 mg/kg/injection, schedule: Q04DX002 (ip), vehicle: saline with Tween-80

Measured: T/C

C=C(CC)C1(C)C(=O)NC(=O)NC1=O
inactive: endpoint: mean survival time, dose: 75.0 mg/kg/injection, schedule: Q01DX001 (ip), vehicle: saline 95 % of control | endpoint: mean survival time, dose: 150.0 mg/kg/injection, schedule: Q01DX001 (ip), vehicle: saline 97 % of control | endpoint: mean survival time, dose: 300.0 mg/kg/injection, schedule: Q01DX001 (ip), vehicle: saline 101 % of control

CCCCOc1cc([N+](=O)[O-])ccc1CO
inactive: [1] 94 % of control | [2] 92 % of control | [3] 87 % of control

CC(C)(C)N[P+](Cc1ccc(C[P+](NC(C)(C)C)(NC(C)(C)C)c2ccccc2)cc1)(NC(C)(C)C)c1ccccc1
inactive: endpoint: mean survival time, dose: 1.56 mg/kg/injection, schedule: Q04DX003 (ip), vehicle: saline 109 % of control | endpoint: mean survival time, dose: 3.13 mg/kg/injection, schedule: Q04DX003 (ip), vehicle: saline 95 % of control

O=C1C=CC(=O)c2c1ccc1ccccc21
inactive: endpoint: mean survival time, dose: 12.5 mg/kg/injection, schedule: Q01DX001 (ip), vehicle: acetone 104 % of control | endpoint: mean survival time, dose: 25.0 mg/kg/injection, schedule: Q01DX001 (ip), vehicle: acetone 105 % of control | endpoint: mean survival time, dose: 50.0 mg/kg/injection, schedule: Q01DX001 (ip), vehicle: acetone 105 % of control

Clc1ccc(/C=N/N=C/c2ccc(Cl)cc2Cl)c(Cl)c1
inactive: endpoint: mean survival time, dose: 100.0 mg/kg/injection, schedule: Q01DX001 (ip), vehicle: Klucel (hydroxypropylcellulose) (HPC) 95 % of control | endpoint: mean survival time, dose: 200.0 mg/kg/injection, schedule: Q01DX001 (ip), vehicle: Klucel (hydroxypropylcellulose) (HPC) 89 % of control | endpoint: mean survival time, dose: 400.0 mg/kg/injection, schedule: Q01DX001 (ip), vehicle: Klucel (hydroxypropylcellulose) (HPC) 103 % of control

CCCCCCCCCCCCOC(=O)C[n+]1cccc(C(=O)Nc2ccccc2)c1
inactive: [4] 95 % of control | [1] 102 % of control

NNC(=S)Nc1ccccc1
inactive: endpoint: mean survival time, dose: 20.0 mg/kg/injection, schedule: Q04DX003 (ip), vehicle: saline with Tween-80 98 % of control

Cn1c(=O)[nH]c2c(-c3ccccc3)n[nH]c2c1=O
inactive: endpoint: median survival time, dose: 25.0 mg/kg/injection, schedule: Q04DX003 (ip), vehicle: saline with Tween-80 90 % of control | endpoint: median survival time, dose: 100.0 mg/kg/injection, schedule: Q04DX003 (ip), vehicle: saline with Tween-80 90 % of control | endpoint: median survival time, dose: 200.0 mg/kg/injection, schedule: Q04DX003 (ip), vehicle: saline with Tween-80 90 % of control

CCCCCCCCOC(=O)c1cc([N+](=O)[O-])c(Cl)c([N+](=O)[O-])c1
inactive: [4] 106 % of control | endpoint: mean survival time, dose: 25.0 mg/kg/injection, schedule: Q04DX003 (ip), vehicle: saline with Tween-80 103 % of control | endpoint: mean survival time, dose: 50.0 mg/kg/injection, schedule: Q01DX009 (ip), vehicle: saline with Tween-80 101 % of control | endpoint: mean survival time, dose: 50.0 mg/kg/injection, schedule: Q04DX003 (ip), vehicle: saline with Tween-80 109 % of control | [5] 87 % of control | [1] 91 % of control and 98 % of control

CCCCCCCCCCCCCCCCCC[n+]1ccc(C(=O)c2ccccc2)cc1
inactive: endpoint: mean survival time, dose: 9.38 mg/kg/injection, schedule: Q01DX001 (ip), vehicle: other 109 % of control | endpoint: mean survival time, dose: 18.75 mg/kg/injection, schedule: Q01DX001 (ip), vehicle: other 110 % of control

CN(C)C(=O)c1ccccc1C(=O)c1ccccc1
inactive: [6] 94 % of control | [7] 87 % of control | endpoint: mean survival time, dose: 400.0 mg/kg/injection, schedule: Q04DX002 (ip), vehicle: saline with Tween-80 91 % of control

[Br][Pt+2][Br].[NH-]CC(=O)O.[NH-]CC(=O)O
inactive: endpoint: mean survival time, dose: 25.0 mg/kg/injection, schedule: Q01DX009 (ip), vehicle: Klucel (hydroxypropylcellulose) (HPC) 101 % of control | endpoint: mean survival time, dose: 50.0 mg/kg/injection, schedule: Q01DX009 (ip), vehicle: Klucel (hydroxypropylcellulose) (HPC) 90 % of control | endpoint: mean survival time, dose: 50.0 mg/kg/injection, schedule: Q04DX003 (ip), vehicle: Klucel (hydroxypropylcellulose) (HPC) 96 % of control | endpoint: mean survival time, dose: 100.0 mg/kg/injection, schedule: Q01DX009 (ip), vehicle: Klucel (hydroxypropylcellulose) (HPC) 86 % of control | endpoint: mean survival time, dose: 100.0 mg/kg/injection, schedule: Q04DX003 (ip), vehicle: Klucel (hydroxypropylcellulose) (HPC) 102 % of control | endpoint: mean survival time, dose: 200.0 mg/kg/injection, schedule: Q04DX003 (ip), vehicle: Klucel (hydroxypropylcellulose) (HPC) 95 % of control

ICC12CCC1(CI)COC2 (stereo not drawn)
inactive: endpoint: mean survival time, dose: 100.0 mg/kg/injection, schedule: Q04DX003 (ip), vehicle: saline 96 % of control | endpoint: mean survival time, dose: 200.0 mg/kg/injection, schedule: Q04DX003 (ip), vehicle: saline 96 % of control | endpoint: mean survival time, dose: 400.0 mg/kg/injection, schedule: Q04DX003 (ip), vehicle: saline 93 % of control

CCC(=O)C(C)(C)c1ccccc1 (tested in a mixture with another compound)
inactive: endpoint: mean survival time, dose: 100.0 mg/kg/injection, schedule: Q01DX001 (ip), vehicle: saline with Tween-80 110 % of control | endpoint: mean survival time, dose: 200.0 mg/kg/injection, schedule: Q01DX001 (ip), vehicle: saline with Tween-80 98 % of control

c1ccc2c(c1)-c1ccccc1C1NC21 (stereo not drawn)
inactive: endpoint: median survival time, dose: 6.25 mg/kg/injection, schedule: Q01DX009 (ip), vehicle: saline with Tween-80 112 % of control | endpoint: median survival time, dose: 12.5 mg/kg/injection, schedule: Q01DX009 (ip), vehicle: saline with Tween-80 108 % of control | endpoint: median survival time, dose: 25.0 mg/kg/injection, schedule: Q01DX009 (ip), vehicle: saline with Tween-80 120 % of control

CCC(=O)NC(=O)C(=O)NC(=O)CC
inactive: endpoint: mean survival time, dose: 25.0 mg/kg/injection, schedule: Q04DX002 (ip), vehicle: saline with Tween-80 102 % of control | endpoint: mean survival time, dose: 50.0 mg/kg/injection, schedule: Q04DX002 (ip), vehicle: saline with Tween-80 95 % of control | [6] 91 % of control | [7] 109 % of control

COC(=O)c1ccccc1C=C(c1ccc([N+](=O)[O-])cc1)c1ccc([N+](=O)[O-])cc1
inactive: [5] 93 % of control | [1] 94 % of control | endpoint: mean survival time, dose: 200.0 mg/kg/injection, schedule: Q01DX009 (ip), vehicle: saline with Tween-80 93 % of control | [2] 96 % of control | [3] 88 % of control

CC(=O)OCCN1CC1
inactive: endpoint: mean survival time, dose: 25.0 mg/kg/injection, schedule: Q01DX009 (ip), vehicle: saline 90 % of control

CC1CCCC(C)N1C1=NCCO1 (stereo not drawn)
inactive: endpoint: mean survival time, dose: 5.0 mg/kg/injection, schedule: Q04DX003 (ip), vehicle: saline 102 % of control | endpoint: mean survival time, dose: 10.0 mg/kg/injection, schedule: Q04DX003 (ip), vehicle: saline 97 % of control | endpoint: mean survival time, dose: 20.0 mg/kg/injection, schedule: Q04DX003 (ip), vehicle: saline 94 % of control

O=C(C(Cl)Cl)N(O)c1ccccc1OCc1ccccc1
inactive: [1] 105 % of control | [2] 103 % of control | [3] 103 % of control

Cc1ccc(C)c2c1CC/C(=C\c1ccccc1[N+](=O)[O-])C2=O
inactive: [1] 96 % of control | [2] 97 % of control | [3] 91 % of control

COC1=C(OC)C(=O)C(C/C=C(\C)CC/C=C(\C)CC/C=C(\C)CC/C=C(\C)CC/C=C(\C)CCC=C(C)C)=C(C)C1=O
inactive: endpoint: mean survival time, dose: 100.0 mg/kg/injection, schedule: Q01DX001 (ip), vehicle: saline 102 % of control | endpoint: mean survival time, dose: 200.0 mg/kg/injection, schedule: Q01DX001 (ip), vehicle: saline 103 % of control | endpoint: mean survival time, dose: 400.0 mg/kg/injection, schedule: Q01DX001 (ip), vehicle: saline 100 % of control

Nc1ncnc2nc[nH]c12
inactive: endpoint: median survival time, dose: 70.0 mg/kg/injection, schedule: Q01DX009 (ip), vehicle: acid diluted with saline 98 % of control | endpoint: median survival time, dose: 70.0 mg/kg/injection, schedule: Q01DX009 (ip), vehicle: other 109 % of control | endpoint: median survival time, dose: 80.0 mg/kg/injection, schedule: Q01DX009 (ip), vehicle: acid diluted with saline 103 % of control | endpoint: median survival time, dose: 80.0 mg/kg/injection, schedule: Q01DX009 (ip), vehicle: other 112 % of control | endpoint: median survival time, dose: 90.0 mg/kg/injection, schedule: Q01DX009 (ip), vehicle: acid diluted with saline 101 % of control | endpoint: median survival time, dose: 90.0 mg/kg/injection, schedule: Q01DX009 (ip), vehicle: other 106 % of control
